Values quoted from earlier work in patent US10881615B2, “Pharmaceutical composition comprising dabigatran etexilate, and preparation method, solid preparation and use thereof” (Chia Tai Tianqing Pharmaceutical Group Co., Ltd., priority 2014, dated 2021).

Conditions: medium at pH of >4.0

Solubility: almost insoluble
SMILES: CCCCCCOC(=O)NC(=N)c1ccc(NCc2nc3cc(C(=O)N(CCC(=O)OCC)c4ccccn4)ccc3n2C)cc1 [dabigatran etexilate, 3-[(2-{[4-(hexyloxycarbonylamino-imino-methyl)-phenylamino]-methyl}-1-methyl-1H-benzimidazol-5-yl-carbonyl)-pyridin-2-yl-amino]-ethyl propionate]
